Measurements from patent publication US11958831B2, “Pyrazole compounds, pharmaceutical compositions thereof and use thereof” (ARTIVILA (SHENZHEN) INNOVATION CENTER, LTD., priority 2018, dated 2024).

Experiments:
IRAK4 kinase = IRAK4 kinase (Homo sapiens (Human), UniProt Q9NWZ3); test: IRAK4 kinase activity assay (mobility shift, Km ATP); type: biochemical; details: Km ATP (15.6 μM ATP), 1 nM IRAK4, 60 min room temperature
Protocol: Inhibitory activity (IC50) of the compounds against IRAK4 kinase under Km ATP was detected through mobility spectrum analysis (MSA). IRAK4 kinase was purchased from Carna (Cat. No.: 09-145, batch No.: 14CBS-0020H), and Kinase Substrate 8 was purchased from GL Biochem (Cat. No.: 112396, batch No.: P171207-MJI112396).
The compounds were prepared with DMSO to 100 times the final reaction concentration and diluted to 10 concentrations in sequence at a 3-fold dilution ratio starting from 1 μM. Then 0.25 μL was transferred to a 384-well plate using Echo550. A 1× kinase buffer (50 mM HEPES, pH=7.5, 0.0015% Brij-35, 10 mM MgCl2, 2 mM DTT) was used to prepare a kinase solution of 2.5 times the final concentration. Then 10 μL of the kinase solution of 2.5 times the final concentration was added to each compound well, shaken and mixed uniformly, and incubated at room temperature for 10 min. A 1× kinase buffer was used to prepare a mixed solution of ATP and substrate Kinase Substrate 8 with a concentration of 25/15 times the final concentration. 15 μL of the mixed solution of ATP and the substrate with a concentration of 25/15 times the final concentration were added to each well (the final concentration of IRAK4 kinase was 1 nM, the final concentration of the substrate was 3 μM, and the final concentration of ATP was 15.6 μM), shaken and mixed uniformly, and reacted at room temperature for 60 min. Finally, 30 μL of stopping solution (100 mM HEPES, pH=7.5, 0.0015% Brij-35, 0.2% Coating Reagent #3, 50 mM EDTA) was added to terminate the reaction. CaliperEZ Reader II was used to read data about conversion rates that was then converted into data about inhibition rates. According to the data about the inhibition rate at each concentration, the half maximal inhibitory concentration (IC50) (Table 1) was calculated by a Logit method.

[1] = tested on: TNFα secretion in THP-1 cells; test: Cellular activity assay: LPS-stimulated TNFα secretion in THP-1 cells (ELISA); type: cell-based; details: Homo sapiens, LPS 1 μg/mL, 4.5 h, read-out: IC50 inhibiting TNFα secretion in THP-1 cells stimulated by LPS
Protocol: Inhibition of IRAK4 by the compounds of the present application was evaluated in THP-1 cells for cellular activity. The stimulus used in this experiment was LPS. LPS is a TLR4 agonist that stimulates the secretion of TNFα through TLR-IRAK4 signaling pathway in the THP-1 cells. Once the signaling pathway is inhibited by IRAK4 inhibitors, the production of TNFα is inhibited. In this experiment, the secretion of TNFα was detected by ELISA.
150 μL of RPMI-1640 medium (Gibco, catalog No.: 11875-085) solution containing 10000 THP-1 cells were added to each well of a 96-well plate and then 25 μL of a test compound solution of 8 times the final concentration (starting from […], 3-fold dilution, 8 concentrations, each concentration containing 4% DMSO RPMI-1640 medium) were added, and they were mixed uniformly and incubated at 37° C. for 30 min. 25 μL of RPMI-1640 medium solution containing LPS were added to each well (the final LPS concentration was 1 μg/mL and the final DMSO concentration was 0.5%), mixed uniformaly, and incubated at 37° C. for 4.5 h. The 96-well plate was rotated at 2000 rpm for 5 min, then 50 μL of supernatant was taken, and the TNFα content in the supernatant was determined with a human ELISA kit (Life Technologies, catalog No.: KHC3011). The IC50 (Table 2) of the compound was calculated by XL-Fit.

Chain of IRAK4 kinase (Q9NWZ3 whole entry): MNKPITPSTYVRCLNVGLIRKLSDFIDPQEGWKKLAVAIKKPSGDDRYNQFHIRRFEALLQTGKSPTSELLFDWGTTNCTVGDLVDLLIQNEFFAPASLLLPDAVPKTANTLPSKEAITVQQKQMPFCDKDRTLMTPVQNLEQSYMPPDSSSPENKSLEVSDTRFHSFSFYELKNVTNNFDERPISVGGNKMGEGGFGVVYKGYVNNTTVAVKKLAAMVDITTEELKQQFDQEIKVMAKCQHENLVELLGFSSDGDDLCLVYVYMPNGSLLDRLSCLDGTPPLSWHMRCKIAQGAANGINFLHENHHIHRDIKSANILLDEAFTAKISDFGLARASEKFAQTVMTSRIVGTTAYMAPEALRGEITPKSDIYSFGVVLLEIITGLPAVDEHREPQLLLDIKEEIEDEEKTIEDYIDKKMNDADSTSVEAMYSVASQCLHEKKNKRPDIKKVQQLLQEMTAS

| IC50 (IRAK4 kinase) [nM] | IC50 [1] [nM] | Compound |
| --- | --- | --- |
| 0.51 | 18 | O=C(Nc1cn(C2CN(C3CCN(C(=O)CO)CC3)C2)nc1C(F)F)c1cccc(-c2cc[nH]n2)n1 [Example 27, N-(3-(difluoromethyl)-1-(1-(1-(2-hydroxyacetyl)piperidin-4-yl)azetidin-3-yl)-1H-pyrazol-4-yl)-6-(1H-pyrazol-3-yl)-2-picolinamide] |
| 0.87 | 35 | CC(=O)N1CCC(N2CC(n3cc(NC(=O)c4cccc(-c5cnn(CC(F)(F)F)c5)n4)c(C(F)F)n3)C2)CC1 [Example 3, N-(1-(1-(1-acetylpiperidin-4-yl)azetidin-3-yl)-3-(difluoromethyl)-1H-pyrazol-4-yl)-6-(1-(2,2,2-trifluoroethyl)-1H-pyrazol-4-yl)-2-picolinamide] |
| 0.96 | 50 | CC(C)(O)C(=O)N1CCC(N2CC(n3cc(NC(=O)c4cccc(-c5cnn(CC(F)F)c5)n4)c(C(F)F)n3)C2)CC1 [Example 36, 6-(1-(2,2-Difluoroethyl)-1H-pyrazol-4-yl)-N-(3-(difluoromethyl)-1-(1-(1-(2-hydroxy-2-methylpropionyl)piperidin-4-yl)azetidin-3-yl)-1H-pyrazol-4-yl)-2-picolinamide] |
| 0.68 | 33 | O=C(Nc1cn(C2CN(C3CCN(C(=O)CO)CC3)C2)nc1C(F)F)c1cccc(-c2cnn(CC(F)(F)F)c2)n1 [Example 4, N-(3-(difluoromethyl)-1-(1-(1-(2-hydroxyacetyl)piperidin-4-yl)azetidin-3-yl)-1H-pyrazol-4-yl)-6-(1-(2,2,2-trifluoroethyl)-1H-pyrazol-4-yl)-2-picolinamide] |
| 0.97 | 42 | CC(C)(C#N)n1cc(-c2cccc(C(=O)Nc3cn(C4CN(C5CCN(C(=O)CO)CC5)C4)nc3C(F)F)n2)cn1 [Example 43, 6-(1-(2-Cyanopropan-2-yl)-1H-pyrazol-4-yl)-N-(3-(difluoromethyl)-1-(1-(1-(2-hydroxyacetyl)piperidin-4-yl)azetidin-3-yl)-1H-pyrazol-4-yl)-2-picolinamide] |
| 0.43 | 23 | CC(C)(O)C(=O)N1CCC(N2CC(n3cc(NC(=O)c4cccc(-c5cc[nH]n5)n4)c(C(F)F)n3)C2)CC1 [Example 41, N-(3-(difluoromethyl)-1-(1-(1-(2-hydroxy-2-methylpropionyl)piperidin-4-yl)azetidin-3-yl)-1H-pyrazol-4-yl)-6-(1H-pyrazol-3-yl)-2-picolinamide] |
| 1.3 | 48 | C[C@@H](O)C(=O)N1CCC(N2CC(n3cc(NC(=O)c4cccc(-c5cnn(CC(F)F)c5)n4)c(C(F)F)n3)C2)CC1 [Example 35, (R)-6-(1-(2,2-difluoroethyl)-1H-pyrazol-4-yl)-N-(3-(difluoromethyl)-1-(1-(1-(2-hydroxypropionyl)piperidin-4-yl)azetidin-3-yl)-1H-pyrazol-4-yl)-2-picolinamide] |
| 0.91 | 43 | CC(=O)N1CCC(N2CC(n3cc(NC(=O)c4cccc(-c5cnn(C(C)(C)C#N)c5)n4)c(C(F)F)n3)C2)CC1 [Example 12, N-(1-(1-(1-acetylpiperidin-4-yl)azetidin-3-yl)-3-(difluoromethyl)-1H-pyrazol-4-yl)-6-(1-(2-cyanopropan-2-yl)-1H-pyrazol-4-yl)-2-picolinamide] |
| 1 | 46 | C[C@H](O)C(=O)N1CCC(N2CC(n3cc(NC(=O)c4cccc(-c5cnn(CC(F)F)c5)n4)c(C(F)F)n3)C2)CC1 [Example 34, (S)-6-(1-(2,2-difluoroethyl)-1H-pyrazol-4-yl)-N-(3-(difluoromethyl)-1-(1-(1-(2-hydroxypropionyl)piperidin-4-yl)azetidin-3-yl)-1H-pyrazol-4-yl)-2-picolinamide] |
| 0.79 | 42 | C[C@@H](O)C(=O)N1CCC(N2CC(n3cc(NC(=O)c4cccc(-c5cnn(CC(F)(F)F)c5)n4)c(C(F)F)n3)C2)CC1 [Example 31, (R)—N-(3-(difluoromethyl)-1-(1-(1-(2-hydroxypropionyl)piperidin-4-yl)azetidin-3-yl)-1H-pyrazol-4-yl)-6-(1-(2,2,2-trifluoroethyl)-1H-pyrazol-4-yl)-2-picolinamide] |
| 0.97 | 52 | CC(C)(O)C(=O)N1CCC(N2CC(n3cc(NC(=O)c4cccc(-c5cnn(CC(F)(F)F)c5)n4)c(C(F)F)n3)C2)CC1 [Example 32, N-(3-(difluoromethyl)-1-(1-(1-(2-hydroxy-2-methylpropionyl)piperidin-4-yl)azetidin-3-yl)-1H-pyrazol-4-yl)-6-(1-(2,2,2-trifluoroethyl)-1H-pyrazol-4-yl)-2-picolinamide] |
| 1.2 | 29 | CC(=O)N1CCC(N2CC(n3cc(NC(=O)c4cccc(-c5cnn(CC(F)F)c5)n4)c(C(F)F)n3)C2)CC1 [Example 1, N-(1-(1-(1-acetylpiperidin-4-yl)azetidin-3-yl)-3-(difluoromethyl)-1H-pyrazol-4-yl)-6-(1-(2,2-difluoroethyl)-1H-pyrazol-4-yl)-2-picolinamide] |
| 0.73 | 25 | CC(=O)N1CCC(N2CC(n3cc(NC(=O)c4cccc(-c5cnn(C(C)(C)CN)c5)n4)c(C(F)F)n3)C2)CC1 [Example 13, N-(1-(1-(1-acetylpiperidin-4-yl)azetidin-3-yl)-3-(difluoromethyl)-1H-pyrazol-4-yl)-6-(1-(1-amino-2-methylpropan-2-yl)-1H-pyrazol-4-yl)-2-picolinamide] |
| 0.99 | 27 | O=C(Nc1cn(C2CN(C3CCN(C(=O)CO)CC3)C2)nc1C(F)F)c1cccc(-c2cnn(CC(F)F)c2)n1 [Example 2, 6-(1-(2,2-Difluoroethyl)-1H-pyrazol-4-yl)-N-(3-(difluoromethyl)-1-(1-(1-(2-hydroxyacetyl)piperidin-4-yl)azetidin-3-yl)-1H-pyrazol-4-yl)-2-picolinamide] |
| 0.67 | – | COC(=O)N1CCC(N2CC(n3cc(NC(=O)c4cccc(-c5cnn(C(C)(C)CN)c5)n4)c(C(F)F)n3)C2)CC1 [Example 18, Methyl 4-(3-(4-(6-(1-(1-amino-2-methylpropan-2-yl)-1H-pyrazol-4-yl)-2-picolinamide)-3-(difluoromethyl)-1H-pyrazol-1-yl)azetidin-1-yl)piperidine-1-carboxylate] |
| 0.59 | 26 | C[C@@H](O)C(=O)N1CCC(N2CC(n3cc(NC(=O)c4cccc(-c5cc[nH]n5)n4)c(C(F)F)n3)C2)CC1 [Example 40, (R)—N-(3-(difluoromethyl)-1-(1-(1-(2-hydroxypropionyl)piperidin-4-yl)azetidin-3-yl)-1H-pyrazol-4-yl)-6-(1H-pyrazol-3-yl)-2-picolinamide] |
| 0.65 | – | COC(=O)N1CCC(N2CC(n3cc(NC(=O)c4cccc(-c5cc[nH]n5)n4)c(C(F)F)n3)C2)CC1 [Example 25, Methyl 4-(3-(4-(6-(1H-pyrazol-3-yl)-2-picolinamide)-3-(difluoromethyl)-1H-pyrazol-1-yl)azetidin-1-yl)piperidine-1-carboxylate] |
| 1.7 | – | COC(=O)N1CCC(N2CC(n3cc(NC(=O)c4cccc(-c5cn[nH]c5)n4)c(C(F)F)n3)C2)CC1 [Example 21, Methyl 4-(3-(4-(6-(1H-pyrazol-4-yl)-2-picolinamide)-3-(difluoromethyl)-1H-pyrazol-1-yl)azetidin-1-yl)piperidine-1-carboxylate] |
| 0.59 | 20 | CC(=O)N1CCC(N2CC(n3cc(NC(=O)c4cccc(-c5cc[nH]n5)n4)c(C(F)F)n3)C2)CC1 [Example 24, N-(1-(1-(1-acetylpiperidin-4-yl)azetidin-3-yl)-3-(difluoromethyl)-1H-pyrazol-4-yl)-6-(1H-pyrazole-3-yl)-2-picolinamide] |
